Assay results taken from publication PMC9768319 (iScience, 2022).
Where two headings read alike, the source gives them in different places.

Legend:
[1] = test system: cancer cells (KPC1242, Panc-1, AsPC-1, HCT-116, MDA-MB-231, OVCAR-4, OVCAR-8); assay: Cell confluence across the battery of cancer cell lines; assay type: cell-based; details: escalating concentrations (0.1 µM-10 µM)
KPC1242 cells [2] = assay: Luminescent ATP detection assay; assay type: cell-based, murine; details: KPC1242, 24 h, 0.7 μM MMe or 3 μM pCF3-MMe
[3] = Tolerability, single intra-peritoneal injection in non-tumor-bearing mice; assay type: in vivo
AsPC-1 cells = assay: TMRE retention by flow cytometry; assay type: cell-based, human; details: AsPC-1, serum-starved, 1 h treatment
[4] = test system: pancreatic, breast, and colon cancers; details: cited from earlier work
HPSC cells = assay: TMRE retention by flow cytometry; assay type: cell-based, human; details: serum-starved, 1 h treatment
[5] = test system: AMP-Activated Protein Kinase (AMPK); assay: AMPK Thr172 phosphorylation immunoblot; assay type: cell-based, murine; details: KPC1242, 0.7 μM MMe or 3 μM pCF3-MMe
KPC1242 cells [6] = assay: Ki-67 proliferation staining; assay type: cell-based, murine; details: KPC1242, 24-h treatment, MMe 0.7 μM or pCF3-MMe 3 μM
HPNE and HPSC cells = assay type: cell-based, human; details: for sensitivity of normal, non-transformed cells compared to cancer cells: HPNE and HPSC vs cancer cells
[7] = Tolerability, daily injection for 5 consecutive days in non-tumor-bearing mice; assay type: in vivo; details: daily for 5 consecutive days, 25 μg/mouse to 1 mg/mouse
[8] = after administration; cited from earlier work
[9] = assay type: in vivo, mice
Panc-1 cells = assay: Cell confluence growth inhibition; assay type: cell-based, human

N=C(N)NC(=N)NCCCCCCCCCC[P+](c1ccccc1)(c1ccccc1)c1ccccc1.[Br-] [MMe, 10-[(carbamimidamidomethanimidoyl)amino]decyl-triphenylphosphonium bromide]
cell confluency [1]: decreased in a concentration-dependent manner
Levels of ATP (KPC1242 cells [2]): significantly reduced
mortality after single injection ([3]; single intra-peritoneal injection of 250 μg or 1 mg): significant and rapid mortality
TMRE accumulation within mitochondria (AsPC-1 cells): significantly reduced TMRE accumulation
fold more efficacious compared to metformin [4]: 100- to 1000 fold
TMRE accumulation within mitochondria (HPSC cells): did not affect TMRE accumulation
AMPK activation (Thr172 phosphorylation) [5]: significant increase in AMPK activation
reduction in Ki-67 levels (KPC1242 cells [6]): 20-30%
sensitivity of normal, non-transformed cells compared to cancer cells (HPNE and HPSC cells): more than a log-unit less sensitive
tolerability of repeated injection [7]: succumbed to 4-fold lower doses

COC1=C(OC)C(=O)C(CCCCCCCCCC[P+](c2ccccc2)(c2ccccc2)c2ccccc2)=C(C)C1=O [MitoQ]
half-life [8]: ~30 min

N=C(N)NC(=N)NCCCCCCCCCC[P+](c1cccc(C(F)(F)F)c1)(c1cccc(C(F)(F)F)c1)c1cccc(C(F)(F)F)c1.[Br-] [mCF3-MMe, (10-(3-carbamimidoylguanidino)decyl)tris(3-(trifluoromethyl)phenyl)phosphonium bromide]
cell confluency [1]: decreased in a concentration-dependent manner
sensitivity of normal, non-transformed cells compared to cancer cells (HPNE and HPSC cells): more than a log-unit less sensitive
reduction in toxicity to normal cells compared to MMe (HPNE and HPSC cells): ~10 fold

N=C(N)NC(=N)NCCCCCCCCCC[P+](c1ccc(C(F)(F)F)cc1)(c1ccc(C(F)(F)F)cc1)c1ccc(C(F)(F)F)cc1.[Br-] [pCF3-MMe, (10-(3-carbamimidoylguanidino)decyl)tris(4-(trifluoromethyl)phenyl)phosphonium bromide]
cell confluency [1]: decreased in a concentration-dependent manner
Levels of ATP (KPC1242 cells [2]): significantly reduced
mice surviving ([3]; single intra-peritoneal injection of 1 mg): 100%
detection in the blood and liver ([9]; 2 h after intra-tumoral injection of 1 mg): undetectable
detection in the blood and liver ([9]; 6 h after injection (not shown)): barely detectable above the signal-to-noise ratio
levels within the tumors ([9]; 24 h after injection, 1 mg/mouse): measurable levels
TMRE accumulation within mitochondria (AsPC-1 cells): significantly reduced TMRE accumulation
TMRE accumulation within mitochondria (HPSC cells): did not affect TMRE accumulation
AMPK activation (Thr172 phosphorylation) [5]: significant increase in AMPK activation
reduction in Ki-67 levels (KPC1242 cells [6]): 20-30%
sensitivity of normal, non-transformed cells compared to cancer cells (HPNE and HPSC cells): more than a log-unit less sensitive
toxic effects toward non-transformed HPNE and HPSC-1 cells (HPNE and HPSC cells; compared to parent MMe and mCF3-MMe): least toxic effects
reduction in toxicity to normal cells compared to MMe (HPNE and HPSC cells): ~10 fold
tolerability of repeated injection [7]: tolerated a 1 mg dose

COc1ccc([P+](CCCCCCCCCCNC(=N)CC(=N)N)(c2ccc(OC)cc2)c2ccc(OC)cc2)cc1.[Br-] [pMeO-MMe, [10-(2-carbamimidoylethanimidamido)decyl]tris(4-methoxyphenyl)phosphonium bromide]
confluence of human pancreatic cancer cells (Panc-1 cells; Panc-1 (Figure S5), escalating concentrations): concentration-dependent decrease in confluence
efficacy in pancreas cancer cells (Panc-1 cells; in contrast to the fluorinated compound): lower efficacy
